The structures appear in SMILES notation.

The first data set concerns the target T1, recombinant human GST-SYK (Homo sapiens, UniProt P43405).
T1 construct: purchased Carna Biosciences 08-176
As to the kind of experiment: Homogeneous Time-Resolved Fluorescence (HTRF) assay for the recombinant human Syk enzyme. To be noted: recombinant human GST-SYK 5 pM, ATP 25 μM, read-out: rhSyk. In kind it is biochemical. The protocol:
Homogeneous Time-Resolved Fluorescence (HTRF) Assay for the Recombinant Human Syk Enzyme
A recombinant GST-hSYK fusion protein was used to measure potency of compounds to inhibit human Syk activity. The recombinant human GST-SYK (Carna Biosciences #08-176) (5 pM final concentration) was incubated with various concentrations of the inhibitor diluted in DMSO (0.1% final concentration) for 10 minutes at room temperature in 15 mM Tris-HCl (pH 7.5), 0.01% tween 20, 2 mM DTT in 384 well plate format. To initiate the reaction the biotinylated substrate peptide (250 nM final concentration) that contains the phosphorylation site for Syk was added with magnesium (5 mM final concentration) and ATP (25 μM final concentration). Final volume of the reaction was 10 μL. Phosphorylation of the peptide was allowed to proceed for 45′ at room temperature. To quench the reaction and detect the phosphorylated product, 2 nM of a Europium-anti-phosphotyrosine antibody (Perkin Elmer #AD0161) and 70 nM SA-APC (Perkin-Elmer #CR130-100) were added together in 15 mM Tris pH 7.5, 40 mM EDTA, 0.01% tween 20. Final volume of the quenching solution was 10 μL.
The resulting HTRF signal was measured after 30 minutes on an EnVision (Perkin-Elmer) reader using a time-resolved fluorescence protocol. Table A below lists activities as IC50 values (nM) for representative compounds of the invention.
On the technique in general: TR-FRET usually uses a lanthanide donor and a delayed reading to cut background.
With `Cc1cc(Nc2ncn(C3CCC3)n2)cc(-c2cnc([C@]3(O)CC[C@@H](C(=O)O)C(C)(C)C3)s2)c1` (single isomer, unassigned) [Example 2.24, (1R,4S or 1S,4R)-4-(5-{3-[(1-cyclobutyl-1H-1,2,4-triazol-3-yl)amino]-5-methylphenyl}-1,3-thiazol-2-yl)-4-hydroxy-2,2-dimethylcyclohexanecarboxylic acid], the IC50 turned out to be 0.388 nM. The same measure, in the same setting: next, `Cc1cc(Nc2ncn(C3CCC3)n2)cc(-c2cnc([C@]3(O)CC[C@@H](C(=O)O)C(C)(C)C3)s2)c1` (single isomer, unassigned) [Example 2.25, (1R,4S or 1S,4R)-4-(5-{3-[(1-cyclobutyl-1H-1,2,4-triazol-3-yl)amino]-5-methylphenyl}-1,3-thiazol-2-yl)-4-hydroxy-2,2-dimethylcyclohexanecarboxylic acid]: 2.54 nM; `Cc1cc(Nc2ncn(C)n2)cc(-c2cnc(C3(O)CCC(C(=O)OC(C)(C)C)CC3)s2)c1` (centres unmarked) [Example 1.1, tert-butyl 4-hydroxy-4-(5-(3-methyl-5-((1-methyl-1H-1,2,4-triazol-3-yl)amino)phenyl)thiazol-2-yl)cyclohexanecarboxylate]: 1160 nM. The same measure, in the same setting: next, `Cc1cc(Nc2ncn(C)n2)cc(-c2cnc(C3(O)CCC(C(=O)O)CC3)s2)c1` (centres unmarked) [Example 1.2, 4-hydroxy-4-(5-(3-methyl-5-((1-methyl-1H-1,2,4-triazol-3-yl)amino)phenyl)thiazol-2-yl)cyclohexanecarboxylic acid]: 56.5 nM.

With `CCn1cnc(Nc2cc(C)cc(-c3cnc(C4(O)CCC(C(=O)OC(C)(C)C)CC4)s3)c2)n1` (centres unmarked) [Example 2.1, tert-butyl 4-(5-(3-((1-ethyl-1H-1,2,4-triazol-3-yl)amino)-5-methylphenyl)thiazol-2-yl)-4-hydroxycyclohexanecarboxylate], the IC50 amounted to 1110 nM. The same measure, in the same setting: next, `CCn1cnc(Nc2cc(C)cc(-c3cnc(C4(O)CCC(C(=O)O)CC4)s3)c2)n1` (centres unmarked) [Example 2.2, 4-(5-(3-((1-ethyl-1H-1,2,4-triazol-3-yl)amino)-5-methylphenyl)thiazol-2-yl)-4-hydroxycyclohexanecarboxylic acid]: 10.1 nM; `CCn1cnc(Nc2cc(C)cc(-c3cnc([C@]4(O)CC[C@@H](C(N)=O)CC4)s3)c2)n1` [Example 2.3, 4-(5-(3-((1-Ethyl-1H-1,2,4-triazol-3-yl)amino)-5-methylphenyl)thiazol-2-yl)-4-hydroxycyclohexanecarboxamide]: 49.6 nM.

Regarding `Cc1cc(Nc2cc[nH]n2)cc(-c2cnc(C3(O)CCC3)s2)c1` [Example 2.4, 1-{5-[3-methyl-5-(1H-pyrazol-3-ylamino)phenyl]-1,3-thiazol-2-yl}cyclobutanol], the IC50 is 1140 nM. Turning to `Cc1cc(Nc2cc(C)[nH]n2)cc(-c2cnc(C3(O)CCC3)s2)c1` [Example 2.5, 1-(5-{3-methyl-5-[(5-methyl-1H-pyrazol-3-yl)amino]phenyl}-1,3-thiazol-2-yl)cyclobutanol], the IC50 stood at 941 nM. Still for that read-out and setting: next, `Cc1cc(Nc2cc(C3CC3)[nH]n2)cc(-c2cnc(C3(O)CCC3)s2)c1` [Example 2.6, 1-(5-{3-[(5-cyclopropyl-1H-pyrazol-3-yl)amino]-5-methylphenyl}-1,3-thiazol-2-yl)cyclobutanol]: 181 nM; `Cc1cc(Nc2cc(C3CCC3)[nH]n2)cc(-c2cnc(C3(O)CCC3)s2)c1` [Example 2.7, 1-(5-{3-[(5-cyclobutyl-1H-pyrazol-3-yl)amino]-5-methylphenyl}-1,3-thiazol-2-yl)cyclobutanol]: 274 nM. On the same count and under the same terms, next, `Cc1cc(Nc2n[nH]c(C)n2)cc(-c2cnc(C3(O)CCC3)s2)c1` [Example 2.9, 1-(5-{3-methyl-5-[(5-methyl-1H-1,2,4-triazol-3-yl)amino]phenyl}-1,3-thiazol-2-yl)cyclobutanol]: 1300 nM; `Cc1cc(Nc2ncn(C)n2)cc(-c2cnc(C3(O)CCC3)s2)c1` [Example 2.10, 1-(5-{3-methyl-5-[(1-methyl-1H-1,2,4-triazol-3-yl)amino]phenyl}-1,3-thiazol-2-yl)cyclobutanol]: 188 nM. Turning to `Cc1cc(Nc2ncn(C(C)C)n2)cc(-c2cnc(C3(O)CCC3)s2)c1` [Example 2.11, 1-[5-(3-methyl-5-{[1-(1-methylethyl)-1H-1,2,4-triazol-3-yl]amino}phenyl)-1,3-thiazol-2-yl]cyclobutanol], the IC50 is 49.2 nM. Regarding `CCn1cnc(Nc2cc(C)cc(-c3cnc(C4(O)CCC4)s3)c2)n1` [Example 2.12, 1-(5-{3-[(1-ethyl-1H-1,2,4-triazol-3-yl)amino]-5-methylphenyl}-1,3-thiazol-2-yl)cyclobutanol], the IC50 is 49.1 nM.

Turning to `CCCn1cnc(Nc2cc(C)cc(-c3cnc(C4(O)CCC4)s3)c2)n1` [Example 2.13, 1-(5-{3-methyl-5-[(1-propyl-1H-1,2,4-triazol-3-yl)amino]phenyl}-1,3-thiazol-2-yl)cyclobutanol], the IC50 was 96.7 nM.

In the case of `Cc1cc(Nc2ncn(-c3ccccc3)n2)cc(-c2cnc(C3(O)CCC3)s2)c1` [Example 2.14, 1-(5-{3-methyl-5-[(1-phenyl-1H-1,2,4-triazol-3-yl)amino]phenyl}-1,3-thiazol-2-yl)cyclobutanol], the IC50 was 365 nM. On the same count and under the same terms, next, `Cc1cc(Nc2ncn(C(=O)N(C)C)n2)cc(-c2cnc(C3(O)CCC3)s2)c1` [Example 2.15, 3-({3-[2-(1-hydroxycyclobutyl)-1,3-thiazol-5-yl]-5-methylphenyl}amino)-N,N-dimethyl-1H-1,2,4-triazole-1-carboxamide]: 3860 nM; `Cc1cc(Nc2ncn(C3CCCCC3)n2)cc(-c2cnc(C3(O)CCC3)s2)c1` [Example 2.16, 1-(5-{3-[(1-cyclohexyl-1H-1,2,4-triazol-3-yl)amino]-5-methylphenyl}-1,3-thiazol-2-yl)cyclobutanol]: 115 nM; `Cc1cc(Nc2ncn(C3CCC3)n2)cc(-c2cnc(C3(O)CCC3)s2)c1` [Example 2.17, 1-(5-{3-[(1-cyclobutyl-1H-1,2,4-triazol-3-yl)amino]-5-methylphenyl}-1,3-thiazol-2-yl)cyclobutanol]: 7.41 nM. With `Cc1cc(Nc2ncnn2C2CCC2)cc(-c2cnc(C3(O)CCC3)s2)c1` [Example 2.18, 1-(5-{3-[(1-cyclobutyl-1H-1,2,4-triazol-5-yl)amino]-5-methylphenyl}-1,3-thiazol-2-yl)cyclobutanol], the IC50 came to 7710 nM. With `Cc1cc(Nc2ncn(Cc3ccccc3)n2)cc(-c2cnc(C3(O)CCC3)s2)c1` [Example 2.19, 1-(5-{3-[(1-benzyl-1H-1,2,4-triazol-3-yl)amino]-5-methylphenyl}-1,3-thiazol-2-yl)cyclobutanol], the IC50 was found to be 325 nM. On to `Cc1cc(Nc2ncn(C(C)C)n2)cc(-c2cnc([C@]3(O)CC[C@@H](C(=O)OC(C)(C)C)CC3)s2)c1` [Example 2.20, tert-butyl cis-4-hydroxy-4-[5-(3-methyl-5-{[1-(1-methylethyl)-1H-1,2,4-triazol-3-yl]amino}phenyl)-1,3-thiazol-2-yl]cyclohexanecarboxylate], for which the IC50 turned out to be 1000 nM. Still for that read-out and setting: next, `Cc1cc(Nc2ncnn2C2CCC2)cc(-c2cnc([C@]3(O)CC[C@@H](C(=O)O)CC3)s2)c1` [Example 2.21, cis-4-(5-{3-[(1-cyclobutyl-1H-1,2,4-triazol-5-yl)amino]-5-methylphenyl}-1,3-thiazol-2-yl)-4-hydroxycyclohexane-carboxylic acid]: 3310 nM; `Cc1cc(Nc2ncn(C(C)C)n2)cc(-c2cnc([C@]3(O)CC[C@@H](C(=O)O)CC3)s2)c1` [Example 2.22, cis-4-hydroxy-4-[5-(3-methyl-5-{[1-(1-methylethyl)-1H-1,2,4-triazol-3-yl]amino}phenyl)-1,3-thiazol-2-yl]cyclohexanecarboxylic acid]: 9.94 nM. On the same count and under the same terms, next, `Cc1cc(Nc2ncn(C(C)C)n2)cc(-c2cnc([C@]3(O)CC[C@@H](C(N)=O)CC3)s2)c1` [Example 2.23, cis-4-hydroxy-4-[5-(3-methyl-5-{[1-(1-methylethyl)-1H-1,2,4-triazol-3-yl]amino}phenyl)-1,3-thiazol-2-yl]cyclohexanecarboxamide]: 36.8 nM.

Test system in another data set: not given
Assay: not given
The note with it: dosed intranasally, phase I/II study, allergic rhinitis; cited from earlier work.
In the case of `Oc1cccc(Nc2ncc(F)c(Nc3cccc(O)c3)n2)c1` [Example R112], the “PGD2 (immune mediator)” value is listed as “statistically significant decrease in PGD2” and the clinical safety result was “safe across a range of indicators”.

Test system in a further data set: not given
Assay: not given
The note with it: phase II clinical trial, allergic rhinitis; cited from earlier work.
On to `Oc1cccc(Nc2ncc(F)c(Nc3cccc(O)c3)n2)c1` [Example R112], for which the efficacy versus placebo result is given as “lack of efficacy versus placebo”.

The values above are taken from patent US9783531B2, “Thiazole-substituted aminoheteroaryls as spleen tyrosine kinase inhibitors” (Merck Sharp & Dohme Corp., priority 2013, dated 2017).
